pIC50: −log10 of the molar value.

For this assay, the system named is Wnt/β-catenin transcription. In words: TOPFlash Reporter Assay (Wnt-3A-stimulated HEK293 cells stably transfected with p8xTOPFlash). It counts as cell-based. The conditions noted are these: for pIC50: Homo sapiens, read-out: Inhibition Wnt/β-catenin transcription TopFlash IC50; for pIC50 / Inhibition Wnt/β-catenin transcription TopFlash, % inhibition: HEK293 TOPFlash cells, Wnt-3A conditioned medium, 8 hour treatment. The protocol:
Wnt-3A conditioned medium was prepared using L WNT-3A cells (ATCC(CRL-2647™) purchased from ATCC. Conditioned medium was obtained following published protocols (http://www.atcc.org/Products/All/CRL-2647.aspx#culturemethod) (Chen, M. Y.; Wang, J. B.; Lu, J. Y.; Bond, M. C.; Ren, X. R.; Lyerly, H. K.; Barak, L. S.; Chen, W. Biochemistry 2009, 48, 10267). HEK293 cells were stably transfected with p8×TOPFlash, Renilla luciferase plasmid pRL-TK (Promega), and pLKO.1 as previously published (Chen, M. Y.; Wang, J. B.; Lu, J. Y.; Bond, M. C.; Ren, X. R.; Lyerly, H. K.; Barak, L. S.; Chen, W. Biochemistry 2009, 48, 10267). Stably transfected cells were seeded in 100 μl of cell growth medium/well in 96-well plates at 100% confluency. Fifty microliters of Wnt-3A conditioned medium containing the chemical compounds to be tested or DMSO was added to each well. After an 8 hour treatment, the cells were washed once with PBS and lysed with 55 μl of Passive Lysis Buffer supplied in the Dual-Luciferase Reporter Assay kit (Promega, Madison, Wis.). Twenty-five microliters of cell lysate was used for measuring luciferase activity in a 96-well plate reader (FluoStar Optima, BMG Labtech, Chicago, Ill.). Data were fit using GraphPad Prism (mean±SEM, n>=2).
Data is from a single experiment unless otherwise noted. Data that is an average of two experiments is noted as “n=2” while data that is an average of three or more experiments is presented as the average plus or minus the standard error of the mean.
For orientation: In a reporter assay the amount or activity of a reporter protein is the signal.

For the compound `O=C(Nc1ccc([N+](=O)[O-])cc1Cl)c1cc(Cl)ccc1O` [A, reference compound], the pIC50 is 6.31.

For `O=C(Nc1ncc([N+](=O)[O-])s1)c1ccccc1O` [B, reference compound], the pIC50 was < 4.92. Same read-out and setting: under `CC(=O)Oc1ccccc1C(=O)Nc1ncc([N+](=O)[O-])s1` [C, reference compound] stands 4.94. Regarding `O=C(Nc1ccncc1Cl)c1cc(Cl)ccc1O` [Compound 1, 5-chloro-N-(3-chloropyridin-4-yl)-2-hydroxybenzamide], the “Inhibition Wnt/β-catenin transcription TopFlash, % inhibition” value (at 10 μM) is listed as 80% inhibition at 10 μM. For the compound `O=C(Nc1ccc([N+](=O)[O-])cn1)c1cc(Cl)ccc1O` [Compound 2, 5-chloro-2-hydroxy-N-(5-nitropyridin-2-yl)benzamide], for the setting “at 2 μM”, the “Inhibition Wnt/β-catenin transcription TopFlash, % inhibition” value was found to be 75% inhibition at 2 μM. For the compound `O=C(Nc1ccc(C(F)(F)F)cn1)c1cc(Cl)ccc1O` [Compound 3, 5-chloro-2-hydroxy-N-(5-(trifluoromethyl)pyridin-2-yl)benzamide], the pIC50 is 5.78. The same measure, in the same setting: under `O=C(Nc1ncc(C(F)(F)F)cc1Cl)c1cc(Cl)ccc1O` [Compound 4, 5-chloro-N-(3-chloro-5-(trifluoromethyl)pyridin-2-yl)-2-hydroxybenzamide] stands 4.76; under `O=C(Nc1ncc([N+](=O)[O-])s1)c1cc(Cl)ccc1O` [Compound 5, 5-chloro-2-hydroxy-N-(5-nitrothiazol-2-yl)benzamide], 5.06.

With `CC(=O)Oc1ccccc1C(=O)Nc1ncc([N+](=O)[O-])s1` [nitazoxanide, reference compound], the “Inhibition of the Wnt/Frizzled signaling pathway (statement in words)” value is reported as “inhibitor of the Wnt/Frizzled signaling pathway”.

These data come from US20190070154A1, “NEW METHODS OF USE FOR AN ANTI-DIARRHEA AGENT” (Duke University, priority 2015, published 2019).
